Source: patent US12448433B2, “Human ApoB100 epitopes, methods and uses for modulating inflammatory responses, and treating adverse cardiovascular events, disease and atherosclerosis” (LA JOLLA INSTITUTE FOR ALLERGY AND IMMUNOLOGY, priority 2015, dated 2025)

Assays:
DPB1*02:01 = experiment: Peptide binding to HLA-DP allele, competition assay; set-up: species or system human
From the text: (§1) Peptide binding to MHC-II requires anchor residues in certain positions and thus can be predicted using computer algorithms. Affinity can be measured experimentally using a competition assay (1). Both are excellent screening tools. However, affinity must be measured separately for each MHC-II allele. Humans express molecules encoded in four different MHC-II loci, denominated HLA-DRB1, DRB3/4/5, DP and DQ. Allelic variation is large, and most people are heterozygous at each locus, thus expressing up to 8 relevant MHC-II alleles. CD4 T cell responses strictly require that the antigenic peptide binds to the relevant MHC-II.
(§2) To identify peptides that could potentially be used in human patients, 30 peptides were screened for binding to 26 HLA alleles by competition assay.

DPB1*03:01 = experiment: as above; set-up: species or system human
From the text: as §1, §2

DPB1*04:02 = experiment: as above; set-up: species or system human
From the text: as §1, §2

DPB1*05:01 = experiment: as above; set-up: species or system human
From the text: as §1, §2

DPB1*14:01 = experiment: as above; set-up: species or system human
From the text: as §1, §2

DPB1*04:01 = target: T1, DPB1*04:01 (Homo sapiens, UniProt P04440); experiment: as above
T1 sequence (P04440 30-258): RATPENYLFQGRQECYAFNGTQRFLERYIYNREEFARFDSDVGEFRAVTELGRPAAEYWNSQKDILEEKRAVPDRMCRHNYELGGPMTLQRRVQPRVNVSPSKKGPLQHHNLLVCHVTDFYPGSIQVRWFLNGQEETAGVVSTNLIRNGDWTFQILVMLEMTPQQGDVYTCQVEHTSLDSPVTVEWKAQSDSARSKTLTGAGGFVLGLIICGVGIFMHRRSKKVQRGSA
T1 sequence (P20036 29-260 partner): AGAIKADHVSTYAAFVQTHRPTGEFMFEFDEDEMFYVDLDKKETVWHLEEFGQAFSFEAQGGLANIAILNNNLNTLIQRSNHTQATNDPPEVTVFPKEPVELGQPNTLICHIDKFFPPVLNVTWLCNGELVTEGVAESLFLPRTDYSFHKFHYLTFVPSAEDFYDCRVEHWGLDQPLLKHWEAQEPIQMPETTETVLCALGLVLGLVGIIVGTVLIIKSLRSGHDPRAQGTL
From the text: as §1, §2

DQB1*05:01 = experiment: Peptide binding to HLA-DQ allele, competition assay; set-up: species or system human
From the text: as §1, §2

DQB1*06:02 = experiment: as above; set-up: species or system human
From the text: as §1, §2

DRB1*04:01 = DRB1*04:01 (Homo sapiens, UniProt P01903+P01911, A100K/A169T/F76Y/I96L/K127E/L162R/M171V/N62H/P40V/Q125Y/R42H/S133A/S149N/S66Y/V115G/V209L/W38E); experiment: Peptide binding to HLA-DR allele, competition assay
From the text: as §1, §2

DRB1*09:01 = DRB1*09:01 (Homo sapiens, UniProt P01903+P01911, A100R/A103E/D57H/D86V/F55Y/F60I/F76Y/I96F/K127E/L162R/M171V/P40D/Q125H/Q99R/R33Q/R42F/S133A/S66N/T210M/V115G/W38K/Y107V/Y59G/Y89S); experiment: as above
From the text: as §1, §2

DRB4*01:01 = DRB4*01:01 (Homo sapiens, UniProt P01903+P13762, G164S); experiment: as above
From the text: as §1, §2

DRB3*02:02 = DRB3*02:02 (Homo sapiens, UniProt P01903+P79483, A212P/D57E/F66Y/L67A/R103Q/R218S/R40L/S89Y/T80R/V86D/Y55F/Y59H); experiment: as above
From the text: as §1, §2

HLA-DRB1*01:01 = HLA-DRB1*01:01 (Homo sapiens, UniProt P01903+P01911, A100R/D57E/F55L/F60I/F76Y/I96L/L162R/M171V/P40L/Q125E/R42F/V115G/Y59C); experiment: as above
From the text: as §1, §2

DRB5*01:01 = DRB5*01:01 (Homo sapiens, UniProt P01903+Q30154); experiment: as above
From the text: as §1, §2

atherosclerotic plaque = experiment: Peptide immunization in atherosclerosis model (ApoE−/− mice on western diet); assay type: in vivo, mouse; conditions: immunization in CFA and 4×IFA

| Molecule | IC50 (DPB1*02:01) [nM] | IC50 (DPB1*03:01) [nM] | IC50 (DPB1*04:02) [nM] | IC50 (DPB1*05:01) [nM] | IC50 (DPB1*14:01) [nM] | IC50 (DPB1*04:01) [nM] | IC50 (DQB1*05:01) [nM] | IC50 (DQB1*06:02) [nM] | IC50 (DRB1*04:01) [nM] | IC50 (DRB1*09:01) [nM] | IC50 (DRB4*01:01) [nM] | IC50 (DRB3*02:02) [nM] | IC50 (HLA-DRB1*01:01) [nM] | IC50 (DRB5*01:01) [nM] | atherosclerotic plaque in the aortic root by serial sections (atherosclerotic plaque) | atherosclerotic plaque in the whole aorta by en face staining (atherosclerotic plaque) |
| --- | --- | --- | --- | --- | --- | --- | --- | --- | --- | --- | --- | --- | --- | --- | --- | --- |
| CSCC[C@H](NC(=O)[C@H](CC(C)C)NC(=O)[C@H](Cc1ccc(O)cc1)NC(=O)[C@H](C)NC(=O)[C@H](C)NC(=O)[C@H](CC(C)C)NC(=O)[C@H](CCCNC(=N)N)NC(=O)[C@H](CCCCN)NC(=O)[C@@H](N)CC(=O)O)C(=O)N[C@@H](CC(C)C)C(=O)N[C@@H](CCSC)C(=O)N[C@@H](CCCNC(=N)N)C(=O)N[C@@H](CO)C(=O)N1CCC[C@H]1C(=O)N[C@@H](CO)C(=O)O [Peptide 3563.0004] | 1680 | 26 | 23 | 4.1 | 102 | 372 | 53 | 13 | 7.1 | 74 | 12 |  |  |  |  |  |
| CC[C@H](C)[C@H](NC(=O)[C@H](CC(C)C)NC(=O)[C@H](CCCCN)NC(=O)[C@H](CO)NC(=O)CNC(=O)[C@@H](N)C(C)C)C(=O)N[C@H](C(=O)N[C@@H](C)C(=O)N[C@@H](CCSC)C(=O)N[C@@H](CO)C(=O)N[C@@H](CO)C(=O)N[C@@H](Cc1c[nH]c2ccccc12)C(=O)N[C@@H](CC(C)C)C(=O)N[C@@H](CCC(N)=O)C(=O)N[C@@H](CCCCN)C(=O)O)C(C)C [Peptide 3563.0008] | 128 |  |  |  | 1860 | 89 |  | 617 |  |  |  | 110 |  |  |  |  |
| CC[C@H](C)[C@H](NC(=O)[C@H](CC(C)C)NC(=O)[C@H](CC(N)=O)NC(=O)[C@@H](NC(=O)[C@@H](NC(=O)[C@H](Cc1ccccc1)NC(=O)[C@H](Cc1c[nH]cn1)NC(=O)[C@H](CCCCN)NC(=O)[C@@H](NC(=O)[C@@H](N)Cc1c[nH]cn1)C(C)C)C(C)C)[C@@H](C)CC)C(=O)NCC(=O)N[C@@H](CC(=O)O)C(=O)N[C@@H](Cc1ccccc1)C(=O)N[C@@H](CCC(=O)O)C(=O)N[C@H](C(=O)O)C(C)C [Peptide 3563.0014] | 58 |  | 148 | 818 | 12200 | 7 | 3.7 | 13600 |  |  |  |  |  |  |  |  |
| CC(C)C[C@H](NC(=O)[C@H](CCC(N)=O)NC(=O)[C@H](C)NC(=O)[C@H](CC(N)=O)NC(=O)[C@H](C)NC(=O)[C@H](CCC(N)=O)NC(=O)[C@H](Cc1ccccc1)NC(=O)[C@H](CC(=O)O)NC(=O)[C@H](Cc1ccccc1)NC(=O)[C@H](CC(N)=O)NC(=O)[C@H](CC(C)C)NC(=O)[C@@H](NC(=O)[C@H](CCC(=O)O)NC(=O)[C@@H](N)CC(C)C)C(C)C)C(=O)N[C@@H](CO)C(=O)O [Peptide 3563.0017] | 86 |  | 586 | 39400 |  | 191 |  |  | 55 |  | 94 |  | 46 |  |  |  |
| CC[C@H](C)[C@H](NC(=O)[C@H](CCCCN)NC(=O)CN)C(=O)N[C@@H](CC(=O)O)C(=O)N[C@@H](Cc1ccccc1)C(=O)N[C@@H](CC(C)C)C(=O)N[C@@H](CC(N)=O)C(=O)N[C@@H](CC(N)=O)C(=O)N[C@@H](Cc1ccc(O)cc1)C(=O)N[C@@H](C)C(=O)N[C@@H](CC(C)C)C(=O)N[C@@H](Cc1ccccc1)C(=O)N[C@@H](CC(C)C)C(=O)N[C@@H](CO)C(=O)N1CCC[C@H]1C(=O)O [Peptide 3563.0019] | 456 |  |  | 424 | 6510 |  |  | 495 |  |  |  |  |  | 57 |  |  |
| CC[C@H](C)[C@H](NC(=O)[C@H](CC(C)C)NC(=O)[C@H](CO)NC(=O)[C@@H](NC(=O)[C@@H](NC(=O)[C@@H](N)CCCCN)[C@@H](C)CC)C(C)C)C(=O)N[C@@H](CCCCN)C(=O)N[C@@H](CC(N)=O)C(=O)N[C@@H](CC(C)C)C(=O)N[C@@H](CC(C)C)C(=O)N[C@H](C(=O)N[C@@H](C)C(=O)N[C@@H](CC(C)C)C(=O)N[C@@H](CCCCN)C(=O)N[C@@H](CC(=O)O)C(=O)O)C(C)C [Peptide 3563.0028] | 657 |  | 155 |  | 1800 | 78 | 124 | 1460 |  |  |  |  |  | 14 |  |  |
| ovalbumin |  |  |  |  |  |  |  |  |  |  |  |  |  |  | not | not |

Further lines, with some results ahead:

| IC50 (DPB1*02:01) [nM] | IC50 (DPB1*03:01) [nM] | IC50 (DPB1*04:02) [nM] | IC50 (DPB1*05:01) [nM] | IC50 (DPB1*14:01) [nM] | IC50 (DPB1*04:01) [nM] | IC50 (DQB1*05:01) [nM] | IC50 (DQB1*06:02) [nM] | IC50 (DRB1*04:01) [nM] | IC50 (DRB1*09:01) [nM] | IC50 (DRB4*01:01) [nM] | IC50 (DRB3*02:02) [nM] | IC50 (HLA-DRB1*01:01) [nM] | IC50 (DRB5*01:01) [nM] | Molecule | atherosclerotic plaque in the aortic root by serial sections (atherosclerotic plaque) | atherosclerotic plaque in the whole aorta by en face staining (atherosclerotic plaque) |
| --- | --- | --- | --- | --- | --- | --- | --- | --- | --- | --- | --- | --- | --- | --- | --- | --- |
|  | 8 |  | 94 | 799 |  | 5570 |  |  |  |  |  |  |  | CSCC[C@H](NC(=O)[C@@H](NC(=O)[C@H](Cc1ccccc1)NC(=O)[C@@H]1CCCN1C(=O)[C@H](C)NC(=O)[C@H](CCSC)NC(=O)[C@@H](NC(=O)[C@H](CO)NC(=O)[C@H](CCCNC(=N)N)NC(=O)[C@H](Cc1ccccc1)NC(=O)[C@@H](NC(=O)[C@H](CC(N)=O)NC(=O)[C@H](CO)NC(=O)[C@H](Cc1ccccc1)NC(=O)[C@@H](N)Cc1c[nH]cn1)C(C)C)C(C)C)[C@@H](C)O)C(=O)O [Peptide 3563.0010] |  |  |
| 16300 |  | 2050 |  | 9550 | 6190 |  | 1950 |  |  | 12 |  |  |  | CC[C@H](C)[C@H](NC(=O)[C@@H](NC(=O)[C@@H](N)CC(C)C)[C@@H](C)CC)C(=O)N[C@@H](CC(N)=O)C(=O)N[C@@H](Cc1c[nH]c2ccccc12)C(=O)N[C@@H](CC(C)C)C(=O)N[C@@H](CCC(N)=O)C(=O)N[C@@H](CCC(=O)O)C(=O)N[C@@H](C)C(=O)N[C@@H](CC(C)C)C(=O)N[C@@H](CO)C(=O)N[C@@H](CO)C(=O)N[C@@H](C)C(=O)N[C@@H](CO)C(=O)N[C@@H](CC(C)C)C(=O)O [Peptide 3563.0015] |  |  |
| 61 |  |  | 4610 | 2070 |  |  | 6140 |  |  | 3.3 | 3.3 |  |  | CC[C@H](C)[C@H](NC(=O)[C@H](CC(N)=O)NC(=O)[C@H](CCCCN)NC(=O)[C@H](CC(C)C)NC(=O)[C@H](Cc1ccccc1)NC(=O)[C@H](CCCNC(=N)N)NC(=O)[C@H](CC(C)C)NC(=O)[C@H](Cc1c[nH]cn1)NC(=O)CNC(=O)[C@@H](N)CCC(=O)O)C(=O)N[C@H](C(=O)N[C@@H](CC(C)C)C(=O)N1CCC[C@H]1C(=O)N[C@H](C(=O)N[C@@H](Cc1ccc(O)cc1)C(=O)O)C(C)C)[C@@H](C)CC [Peptide 3563.0021] |  |  |
| 96 |  | 8.6 | 32 |  | 215 | 4760 | 5900 |  |  |  |  |  |  | CC[C@H](C)[C@H](NC(=O)[C@H](CC(C)C)NC(=O)[C@@H](N)Cc1ccccc1)C(=O)N[C@@H](Cc1ccc(O)cc1)C(=O)N[C@H](C(=O)N[C@H](C(=O)N[C@@H](CCC(=O)O)C(=O)N[C@@H](CC(C)C)C(=O)N[C@@H](CC(C)C)C(=O)N[C@@H](CCCCN)C(=O)N[C@@H](CCCCN)C(=O)N[C@@H](CC(C)C)C(=O)N[C@@H](CCC(N)=O)C(=O)N[C@@H](CO)C(=O)N[C@H](C(=O)O)[C@@H](C)O)[C@@H](C)O)[C@@H](C)CC [Peptide 3563.0030] |  |  |
